Data reported in patent publication US20160355457A1, “Solid Forms Comprising(-)-O-Desmethylvenlafaxine And Uses Thereof” (Sunovion Pharmaceuticals Inc., priority 2007, published 2016).

How the values were obtained:
[1] = Moisture sorption/desorption (dynamic vapor sorption); type: physicochemical
Description: Moisture sorption/desorption data were collected on a VTI SGA-100 Vapor Sorption Analyzer. Sorption and desorption data were collected over a range of 5% to 95% relative humidity (RH) at 10% RH intervals under a nitrogen purge. For some samples, a step at 90% RH was added to the sorption cycle. Samples were not dried prior to analysis. Equilibrium criteria used for analysis were less than 0.0100% weight change in 5 minutes, with a maximum equilibration time of 3 hours if the weight criterion was not met. Data were not corrected for the initial moisture content of the samples. NaCl and PVP were used as calibration standards.

[2] = Stability properties of the solid form; type: physicochemical
[3] = decreased from 95% to 5% relative humidity
[4] = increased from 5% to 95% relative humidity

loss in mass on decreasing relative humidity (dynamic vapor sorption) [1, 3] | gain in mass on increasing relative humidity (dynamic vapor sorption) [1, 4] | SMILES | other results
about 22% | about 23% | CN(C)C[C@@H](c1ccc(O)cc1)C1(O)CCCCC1.Cl [Form G, monohydrochloride salt of (−)-O-desmethylvenlafaxine] | gain in mass on increasing relative humidity (dynamic vapor sorption) ([1]; increased from 5% to 90% relative humidity): about 3%
about 33% | about 32% | CN(C)C[C@@H](c1ccc(O)cc1)C1(O)CCCCC1.Cl [Form F, monohydrochloride salt of (−)-O-desmethylvenlafaxine] | 
 |  | CN(C)C[C@@H](c1ccc(O)cc1)C1(O)CCCCC1.Cl [Form A, (−)-1-[2-(dimethylamino)-1-(4-hydroxyphenyl)ethyl]cyclohexanol hydrochloride salt] | stability properties [2]: excellent stability properties; loss in mass on decreasing relative humidity (dynamic vapor sorption) ([1]; decreased from 90% to 5% relative humidity): about 1%; gain in mass on increasing relative humidity (dynamic vapor sorption) ([1]; increased from 5% to 90% relative humidity, hydrochloride salt): < 1%
about 5.8% | about 4.7% | CN(C)C[C@@H](c1ccc(O)cc1)C1(O)CCCCC1.Cl [Form E, monohydrochloride salt of (−)-O-desmethylvenlafaxine] | 
about 26% | about 25% | CN(C)C[C@@H](c1ccc(O)cc1)C1(O)CCCCC1.Cl [Form B, monohydrochloride salt of (−)-O-desmethylvenlafaxine] | 
 |  | CN(C)C[C@@H](c1ccc(O)cc1)C1(O)CCCCC1.Cl [amorphous form, (−)-1-[2-(dimethylamino)-1-(4-hydroxyphenyl)ethyl]cyclohexanol monohydrochloride salt] | loss in mass on decreasing relative humidity (dynamic vapor sorption) ([1]; decreased from 95% to 5% relative humidity, monohydrochloride salt): about 32%; gain in mass on increasing relative humidity (dynamic vapor sorption) ([1]; increased from 5% to 95% relative humidity, monohydrochloride salt): about 36%
about 27% | about 27% | CN(C)C[C@@H](c1ccc(O)cc1)C1(O)CCCCC1.Cl [Form C, monohydrochloride salt of (−)-O-desmethylvenlafaxine] | 
